Assay results from patent US20230088719A1, “USE OF BMP INHIBITORS IN THE TREATMENT OF MOLAR PREGNANCY” (BOGAZICI UNIVERSITESI, priority 2020, published 2023).
Entries after “also recorded” stand apart in the source; their conditions may differ.

System: complete mole iPS cells
Assay: Trophoblast differentiation of complete mole iPS cells under AP conditions with BMP receptor inhibitor LDN193189
Assay type: cell-based, human
Experimental: FIG. 9—Preventing trophoblast differentiation in complete mole iPS cells by inhibition of the BMP signaling pathway. Cells are exposed to vehicle (DMSO) or BMP receptor inhibitor LDN193189 (100 nM) under AP conditions. (A) Changes in colony morphology by LDN193189 treatment. Pictures were obtained with 4× magnification. (B) Heat map showing the expression of trophoblast markers during differentiation of healthy and complete mole iPS cells (n=2 biological replicas) (C-D) Violin plot representation of pluripotency and trophoblast markers (n=2, ****p<0.001, Wilcoxon rank total test) (E) RT-qPCR for trophoblast and stem cell markers. Sidak multiple comparison tests were applied following 2-way ANOVA, *p<0.05, **p<0.01, ***p<0.005, ****p<0.001. Bars; showing±Standard Deviation. (F) Representative immunoblots for CDX2, HLA-G, KRT7 and OCT3/4.
In accordance the purpose of the present invention, the inventors applied it to the nutrition fluid of cells under LDN193189 AP conditions to test whether BMP receptor inhibitors can attenuate trophoblast differentiation or not. […] (FIG. 10A)
Trophoblast cells were formed from the obtained IPSCs under BAP or AP conditions. IPS cells were routinely kept on MEFs with hES medium (10 ng/mL FGF2). For trophoblast differentiation, 2.4×10^4 cells per square centimeter were seeded on matrigel-coated plates with conditioned hES medium through a monolayer of mitomycin-C treated MEF nutrient cells (MEF-CM) containing FGF2 (10 ng/mL). Next day, the medium was changed as MEF-CM containing 4 ng/mL FGF2. Next day, the medium was changed as BMP4 (10 ng/mL) containing unconditioned (BAP) hESC basal medium with MEF nutrient cells (RD Systems), ALK4/5/7 inhibitor, A83-01 (1 μM) (Tocris) and FGF2-signal inhibitor PD173074 […] (Sigma) (22, 27, 28). Control cultures were grown in the presence of FGF2 and in the absence of BAP. The medium was refreshed daily.
Total RNA was extracted using the Direct-zol RNA Isolation Kit (Zymogen) and cDNA was synthesized using the Sensifast cDNA synthesis kit (Bioline) as described by the manufacturer. Sequences of primers used in gene expression were synthesized by Macrogen as listed in table 3. qRT-PCR was performed on Exicycler™ 96 (Bioneer) using SensiFAST™ SYBRQR No-ROX Kit (Bioline). qRT-PCR results were analysed by the Ct method for relative amounts by taking GAPDH or HPRT as internal controls.
Cells were harvested in RIPA lysis buffer (150 mM NaCl, 1% NP40, 0.5% sodium deoxycholate, 0.1% SDS, 50 mM Tris pH 7.4) supplied with protease and phosphatase inhibitors (Roche, Switzerland). TCA-acetone precipitation was performed for the supernatants. Protein samples were applied to the SDS gel. Semi-dry transfer was performed by using Blotting papers (Sigma-Aldrich, USA) and PVDF membrane (Millipore, Ireland). After blocking with 5% non-fat dry milk, membranes were incubated overnight with primary antibodies (1:1000) at +4° C. Next day, the membrane was incubated with secondary antibodies connected with 1:2000 HRP according to the host origin of the primary antibody. Between all steps, membranes were washed 3 times with TBS-T. Immunoblot membranes were visualized with the Syngene documentation system by using ECL HRP Substrate (Advansta, USA).
Total RNA was extracted by using the Direct-zol RNA Isolation Kit (Zymogen) according to the protocol of the manufacturer (n=2 in all cases). Library preparation procedure by using Truseq strand mRNA LT Sample Preparation Kit (Illumina) and RNA sequencing procedure by using Hiseq2500 (Illumina) were performed by Macrogen Inc. (Korea). RNA sequence data were processed and interpreted with the Genialis visual computing platform (www.genialis.com). Briefly, RNA sequence readings were subjected to correction (BBDuk), mapping (STAR) and expression quantitation (featureCounts) procedures, respectively. The readings were mapped to Homo sapiens GRCh38 (Ensembl, version 92, ERCC). […]

[1] = complete mole cells, BMP pathway inhibition with LDN193189 100 nM, AP conditions, FIG. 9F
[2] = complete mole cells, LDN193189 100 nM, AP conditions, FIG. 9C-9D

For c1ccc2c(-c3cnn4cc(-c5ccc(N6CCNCC6)cc5)cnc34)ccnc2c1 [LDN193189], the “trophoblast differentiation of complete mole cells” value (LDN193189 100 nM, AP conditions, heat map of trophoblast markers FIG. 9B) was “inhibits trophoblast differentiation of complete mole cells; also recorded: suppression of excessive trophoblast differentiation”, the “hierarchical clustering at whole transcriptome level” value (cells treated with LDN193189, FIG. 10D) was “clustered with non-differentiated iPS cells” and the “trophoblast gene expression by qRT-PCR” value (complete mole cells, BMP pathway inhibition with LDN193189 100 nM, AP conditions, FIG. 9E) was “decrease in trophoblast gene expression”. For the same molecule, the “CDX2, KRT7, HLA-G expression (immunoblot)” value [1] was “stopped CDX2, KRT7, HLA-G increase in expression”, the “OCT3/4 expression (immunoblot)” value [1] was “prevented decrease in expression (downregulation) of OCT3/4” and the “colony morphology (light microscopy)” value (complete mole cells, LDN193189 100 nM, AP conditions (A83-01+PD173074, no BMP4), vs DMSO vehicle, FIG. 9A) was “morphological phenotype similar to healthy cells”. For the same molecule, the “expression of pluripotency markers (RNA sequencing, violin plot)” value [2] was “remained highly expressed” and the “global expression of trophoblast markers (RNA sequencing, violin plot)” value [2] was “decreased”.
